Data published in patent US12410419B2, “Use of enzyme that cleaves both alpha- and beta- 1,4-glycosidic bonds” (Korea University Research and Business Foundation, priority 2019, dated 2025).

Assays:
[1] = test system: TM0306 bacterial fucosidase, T. maritima; conditions: Table 1, Sulzenbacher 2004, cited from earlier work
[2] = target: Vibrio sp. strain EJY3 α-L-fucosidase VeFUC (VEJY3_11310, UniProt H2IHW9.1), wild type, SEQ ID NO: 1 (Vibrio sp. EJY3, UniProt A0ACD6BAZ0); experiment: Kinetic parameters of VeFUC for pNP-α-L-Fuc; type: biochemical; conditions: Table 1, Present invention
Experimental: Genomic DNA of Vibrio sp. strain EJY3 for cloning a gene encoding VeFUC was prepared as follows: Vibrio sp. strain EJY3 was cultured in a minimum medium consisting of 23 g/L Instant Ocean Sea Salt (Aquarium Systems, Mentor, OH, USA), 50 mM Tris-HCl (pH 7.4), 2 g/L glucose, 1 g/L yeast extract and 0.5 g/L ammonium chloride at 303 K and 200 rpm for 18 hours. The genomic DNA was extracted from a culture using the DNeasy Blood & Tissue Kit (Qiagen, Valencia, CA, USA) according to the manufacturer's protocol. A target gene, VEJY3_11310 (UniProt accession no. H2IHW9.1) was amplified by PCR using the following primers. The underlined parts are BamHI and XhoI restriction enzyme sites; […]
(§1) Recombinant E. coli loaded with the pET21a-VeFUC plasmid was grown at 310 K and 200 rpm until an absorbance measured at 600 nm in a culture Luria-Bertani (LB) broth containing 100 mg L^−1 ampicillin reached 0.6. […] The concentrated enzyme solution was analyzed by bicinchoninic acid (BCA) protein analysis (Thermo Fisher Scientific, Waltham, MA) and 12% (w/v) SDS-PAGE gel electrophoresis to determine the concentration, size and purity of the target protein.
(§2) The reaction was terminated by adding 500 μl of 1 M sodium carbonate thereto, and the absorbance of the reaction mixture was quantified by spectrophotometry at 405 nm. […]

[3] = test system: BT_2970 bacterial fucosidase; conditions: Table 1; Sakurama 2012; cited from earlier work
[4] = test system: BT_2970 bacterial fucosidase, B. subtilis thetaiotaomicron; conditions: Table 1; Sakurama 2012; cited from earlier work
[5] = test system: AlfA bacterial fucosidase, Lactobacillus casei; conditions: Table 1; Rodriguez-Diaz 2011; cited from earlier work
[6] = test system: aLfuk1 bacterial fucosidase; conditions: Table 1; Benesova 2013; cited from earlier work
[7] = test system: TfFuc1 bacterial fucosidase, Tannerella forsythia; conditions: Table 1; Megson 2015; cited from earlier work
[8] = test system: XCC2888 bacterial fucosidase, Xanthomonas campestris; conditions: Table 1, Dupoiron 2015, cited from earlier work
[9] = test system: Alf1_Wf bacterial fucosidase, Wenyingzhuangia fucanilytica; conditions: Table 1; Dong 2017; cited from earlier work
[10] = test system: AlfC bacterial fucosidase, L. casei; set-up: Vmax: unit not given here; conditions: Table 1; Rodriguez-Diaz 2011; cited from earlier work
[11] = test system: AlfB bacterial fucosidase, L. casei; set-up: Vmax: unit not given here; conditions: Table 1; Rodriguez-Diaz 2011; cited from earlier work
[12] = substrate: C[C@@H]1O[C@@H](Oc2ccc([N+](=O)[O-])cc2)[C@@H](O)[C@H](O)[C@@H]1O; experiment: Kinetic parameters of VeFUC for pNP-α-L-Fuc; type: biochemical, Vibrio sp. strain EJY3; conditions: other: text, 313 K, 10 mM sodium acetate buffer (pH 6.0), Lineweaver-Burk plot, 40.0 °C
Experimental: Genomic DNA of Vibrio sp. strain EJY3 for cloning a gene encoding VeFUC was prepared as follows: Vibrio sp. strain EJY3 was cultured in a minimum medium consisting of 23 g/L Instant Ocean Sea Salt (Aquarium Systems, Mentor, OH, USA), 50 mM Tris-HCl (pH 7.4), 2 g/L glucose, 1 g/L yeast extract and 0.5 g/L ammonium chloride at 303 K and 200 rpm for 18 hours. The genomic DNA was extracted from a culture using the DNeasy Blood & Tissue Kit (Qiagen, Valencia, CA, USA) according to the manufacturer's protocol. A target gene, VEJY3_11310 (UniProt accession no. H2IHW9.1) was amplified by PCR using the following primers. The underlined parts are BamHI and XhoI restriction enzyme sites;
Recombinant proteins were purified using a HisTrap column (GE Healthcare, Piscataway, NJ, USA) by adding sequences encoding 6 histidines to the reverse primer. A PCR product was treated with BamHI and XhoI restriction enzymes and subsequently ligated to a pET-21a plasmid (Novagen, Darmstadt, Germany) to construct a PET21a-VeFUC plasmid.
as §1, §2
In order to measure the kinetic parameters of VeFUC for pNP-α-L-Fuc, enzymatic reactions were performed at different concentrations of pNP-α-L-Fuc in a range of 0.109 to 0.875 mM under the same conditions described above. Vmax, Km and kcat, which are enzyme kinetic parameters of VeFUC were measured from a Lineweaver-Burk plot. […]

C[C@@H]1O[C@@H](Oc2ccc([N+](=O)[O-])cc2)[C@@H](O)[C@H](O)[C@@H]1O [pNP-α-L-Fuc, p-nitrophenyl-α-L-fucopyranoside]
Km [1]: 34 ± 2 µM
Kcat ([1]; in 1/s): 5.4 ± 0.2
Vmax [2]: 24.8 ± 0.9
Kcat ([2]; in 1/s): 4.81 ± 1.8
Kcat [3]: 1.3 s⁻¹
Km [4]: 1.5 mM
Km [5]: 270 µM
Km [6]: 440 ± 20 µM
Km [7]: 670 ± 200 µM
Vmax [7]: 20.4
Km [8]: 700 ± 100 µM
Kcat ([8]; in 1/s): 6.1 ± 2.0
Kcat [9]: 5.44 s⁻¹
Km [9]: 3.3 ± 0.42 mM
Vmax [9]: 4.75
Km [10]: 5.3 mM
Vmax [10]: 22.2
Km [11]: 2.9 mM
Vmax [11]: 6

B1: Vibrio sp. strain EJY3 α-L-fucosidase VeFUC (VEJY3_11310, UniProt H2IHW9.1), wild type, SEQ ID NO: 1 (Vibrio sp. EJY3) (protein)
chain: MTKPTAGELTGTSSQATSQLDNRNAFTGVSKQGLNRWKKNTFGMFIHWGLYCHRDLAGYYQGQYYDIISEWLPHFARIPMRDYKEYASDFNPSEFDADQVTALAKTAGMNYMVVTAKHHDGFAMYHSPSHPFNITDATPFKRDPVAELSQSCRHKDLDFGLYYSHVIDWENENAVSKAPNDWDFNPDQANYQEYWNNKCLPQVNELLEQYGDLCSLWFDMGGFDVQEEADHVRRIGELMALIRKKQPDAVVNSRVTAPECEYQLDWDIKTGHDNYMEPLYIKPYYWEGIATSNDNWGYSRNDNNTKSSKDLINQLCSVVSRGGNFLLNITLDHNGRIPQSLVRLLSEIGQWMQVNQEAVIDTEATPLQTGFNWGVVTHRPATNKLYLHVQRQPEQNVICLHSLNNRIKQVRLLDNQIKGHVSYLQKTHTDTGITASTLNLQLGHNYDRMPLVIELEYDGELDINPIVHQDRLAKVRLDTLNIAHFDPEKLTYRWTFQIQSPGRFALDLVSLETMHHKDPQWVHNGKTGRISCGGQSWEFELNLDKTDTNDAQVPWKNIHSRLGELHFPQAGEYTLEFSELPLAIDQSEKYGQDYINLEYLQLGPRLA
Km [12]: 6.34 ± 0.48 mM
Vmax [12]: 24.8±0.9 U mg^−1 protein
kcat [12]: 4.81 ± 1.8 s⁻¹
